According to patent US20080090863A1, “Pyridine Derivatives and Their Use as Medicaments for Treating Diseases Related to Mch Receptor” (TAISHO PHARMACEUTICAL CO., LTD., priority 2004, published 2008):
Structures can show the parent of a compound that is named as a salt. Where two headings read alike, the source gives them in different places.

Target: MCH receptor (Homo sapiens, UniProt Q99705)
Assay: High Throughput Functional Screening: FLIPR/FDSS6000 intracellular Ca2+ assay, antagonist activity against MCH
Type: cell-based
Parameters: class (percent of control at 10^−7 M or IC50): scale not given here
Conditions: FLIPR/FDSS, [Ca2+]i evoked by 50 nM MCH
From the text: Subsequently, a functional based assay was used to confirm the lead hits, referred to as FLIPR™ (the Fluorometric Imaging Plate Reader) and FDSS6000™ (Functional Drug Screening System). This assay utilized a non-endogenous, constitutively active version of the MCH receptor.
The FLIPR and FDSS assays are able to detect intracellular Ca^2+ concentration in cells, which can be utilized to assess receptor activation and determine whether a candidate compound is an, for example, antagonist, inverse agonist or agonist to a Gq-coupled receptor. The concentration of free Ca^2+ in the cytosol of any cell is extremely low, whereas its concentration in the extracellular fluid and endoplasmic reticulum (ER) is very high. Thus, there is a large gradient tending to drive Ca^2+ into the cytosol across both the plasma membrane and ER. The FLIPR™ and FDSS6000™ systems (Molecular Devices Corporation, HAMAMATSU Photonics K.K.) are designed to perform functional cell-based assays, such as the measurement of intracellular calcium for high-throughput screening. The measurement of fluorescent is associated with calcium release upon activation of the Gq-coupled receptors.
Fluorometric Imaging Plate Reader system was used to allow for rapid, kinetic measurements of intracellular fluorescence in 96 well microplates (or 384 well microplates). Simultaneous measurements of fluorescence in all wells can be made by FLIPR or FDSS6000™ every second with high sensitivity and precision. These systems are ideal for measuring cell-based functional assays such as monitoring the intracellular calcium fluxes that occur within seconds after activation of the Gq coupled receptor.
Briefly, the cells are seeded into 96 well at 5.5×10^4 cells/well with complete culture media (Dulbecco's Modified Eagle Medium with 10% fetal bovine serum, 2 mM L-glutamine, 1 mM sodium pyruvate and 0.5 mg/mL G418, pH 7.4) for the assay next day. On the day of assay, the media is removed and the cells are incubated with 100 μl of loading buffer (4 μM Fluo4-AM in complete culture media containing 2.5 mM Probenicid, 0.5 mg/ml and 0.2% bovine serum albumin) in 5% CO2 incubator at 37° C. for 1 hr. The loading buffer is removed, and the cells are washed with wash buffer (Hank's Balanced Salt Solution containing 2.5 mM Probenicid, 20 mM HEPES, 0.5 mg/mL and 0.2% bovine serum albumin, pH 7.4). One hundred fifty μl of wash buffer containing various concentrations of test compound is added to the cells, and the cells are incubated in 5% CO2 incubator at 37° C. for 30 min. Fifty μl of wash buffer containing various concentration of MCH are added to each well, and transient changes in [Ca^2+]i evoked by MCH are monitored using the FLIPR™ or FDSS in 96 well plates at Ex. 488 nm and Em. 530 nm for 290 second. When antagonist activity of compound is tested, 50 nM of MCH is used.
Use of FLIPR™ and FDSS6000™ can be accomplished by following manufacturer's instruction (Molecular Device Corporation and HAMAMATSU Photonics K.K.).

[1] = class by percent of control at 10^−7 M or IC50, read-out: class (percent of control at 10^−7 M or IC50)
[2] = class by percent of control at 10^−7 M or IC50

SMILES | IC50 [1] [nM] | also measured
CNc1cc(N[C@H]2CC[C@@H](NC(=O)c3cc(F)c(F)c(F)c3)CC2)ncc1C [Example 16, 3,4,5-Trifluoro-N-(cis-4-{[5-methyl-4-(methylamino)pyridin-2-yl]amino}cyclohexyl)-benzamide hydrochloride] | < 50 | –
Cc1cnc(N[C@H]2CC[C@@H](NC(=O)c3ccc(F)c(Cl)c3)CC2)cc1C [Example 51, 3-Chloro-N-{cis-4-[(4,5-dimethylpyridin-2-yl)amino]cyclohexyl}-4-fluorobenzamide hydrochloride] | < 50 | –
Cc1cnc(N[C@H]2CC[C@@H](NC(=O)Oc3ccc(Br)cc3)CC2)cc1N(C)C [Example 27, 4-Bromophenyl (cis-4-{[4-(dimethylamino)-5-methylpyridin-2-yl]amino}cyclohexyl)carbamate] | – | class (percent of control at 10^−7 M or IC50) [2]: 2
Cc1cc(N(C)C)cc(N[C@H]2CC[C@@H](NC(=O)COc3ccc(Cl)cc3)CC2)n1 [Example 147, 2-(4-chlorophenoxy)-N-(cis-4-{[4-(dimethylamino)-6-methylpyridin-2-yl]amino}cyclohexyl)acetamide] | < 50 | –
Cc1cc(N(C)C)cc(N[C@H]2CC[C@@H](NC(=O)c3ccc(F)c(F)c3)CC2)n1 [Example 171, N-(cis-4-{[4-(dimethylamino)-6-methylpyridin-2-yl]amino}cyclohexyl)-3,4-difluorobenzamide] | < 50 | –
COc1ccc(Oc2ccc([N+](=O)[O-])cc2C(=O)N[C@H]2CC[C@@H](Nc3cc(N(C)C)cc(C)n3)CC2)cc1 [Example 192, N-(cis-4-{[4-(dimethylamino)-6-methylpyridin-2-yl]amino}cyclohexyl)-2-(4-methoxyphenoxy)-5-nitrobenzamide] | < 50 | –
CNc1cc(N[C@H]2CC[C@@H](NC(=O)c3ccc(F)c(Cl)c3)CC2)ncc1C [Example 15, 3-Chloro-4-fluoro-N-(cis-4-{[5-methyl-4-(methylamino)pyridin-2-yl]amino}cyclohexyl)-benzamide hydrochloride] | < 50 | –
Cc1cnc(N[C@H]2CC[C@@H](NC(=S)Nc3ccc(F)c(Cl)c3)CC2)cc1N(C)C.Cl [Example 26, N-(3-Chloro-4-fluorophenyl)-N′-(cis-4-{[4-(dimethylamino)-5-methylpyridin-2-yl]amino}-cyclohexyl)thiourea hydrochloride] | – | class (percent of control at 10^−7 M or IC50) [2]: 2
Cc1cnc(N[C@H]2CC[C@@H](NC(=O)c3cc(F)c(F)c(F)c3)CC2)cc1N(C)C [Example 5, N-(cis-4-{[4-(Dimethylamino)-5-methylpyridin-2-yl]amino}cyclohexyl)-3,4,5-trifluorobenzamide hydrochloride] | < 50 | IC50 (non-endogenous constitutively active MCH receptor, read-out: IC50): 1.9 nM
Cc1cc(N[C@H]2CC[C@@H](NC(=O)c3ccc(F)c(Cl)c3)CC2)nc2c1CCC2 [Example 33, 3-Chloro-4-fluoro-N-{cis-4-[(4-methyl-6,7-dihydro-5H-cyclopenta[b]pyridin-2-yl)amino]cyclohexyl}benzamide hydrochloride] | < 50 | –
Cc1cc(N(C)C)cc(N[C@H]2CC[C@@H](NC(=O)c3cccc([N+](=O)[O-])c3)CC2)n1 [Example 190, N-(cis-4-{[4-(dimethylamino)-6-methylpyridin-2-yl]amino}cyclohexyl)-3-nitrobenzamide] | < 50 | –
CN(C)c1ccnc(N[C@H]2CC[C@@H](NC(=O)c3cc(F)c(F)c(F)c3)CC2)c1 [Example 37, N-(cis-4-{[4-(Dimethylamino)pyridin-2-yl]amino}cyclohexyl)-3,4,5-trifluorobenzamide hydrochloride] | < 50 | –
Cc1cnc(N[C@H]2CC[C@@H](NC(=O)c3ccc(F)c(C(F)(F)F)c3)CC2)cc1N(C)C [Example 13, N-(cis-4-{[4-(Dimethylamino)-5-methylpyridin-2-yl]amino}cyclohexyl)-4-fluoro-3-(trifluoromethyl)benzamide hydrochloride] | < 50 | –
O=C(N[C@H]1CC[C@@H](Nc2ccc3c(n2)CCCC3)CC1)c1ccc(F)c(Cl)c1 [Example 39, 3-Chloro-4-fluoro-N-[cis-4-(5,6,7,8-tetrahydroquinolin-2-ylamino)cyclohexyl]benzamide hydrochloride] | < 50 | –
CN(C)c1ccnc(N[C@H]2CC[C@@H](NC(=O)c3ccc(F)c(Cl)c3)CC2)c1 [Example 36, 3-Chloro-N-(cis-4-{[4-(dimethylamino)pyridin-2-yl]amino}cyclohexyl)-4-fluorobenzamide hydrochloride] | < 50 | –
Cc1ccc(N[C@H]2CC[C@@H](NC(=O)c3ccc(F)c(Cl)c3)CC2)nc1C [Example 43, 3-Chloro-N-{cis-4-[(5,6-dimethylpyridin-2-yl)amino]cyclohexyl}-4-fluorobenzamide hydrochloride] | < 50 | –
Cc1cnc(N[C@H]2CC[C@@H](NC(=O)c3cccc(Cl)c3)CC2)cc1N(C)C [Example 10, 3-Chloro-N-(cis-4-{[4-(dimethylamino)-5-methylpyridin-2-yl]amino}cyclohexyl)benzamide hydrochloride] | < 50 | –
Cc1cnc(N[C@H]2CC[C@@H](NC(=O)c3cc(F)cc(Cl)c3)CC2)cc1N(C)C [Example 6, 3-Chloro-N-(cis-4-{[4-(dimethylamino)-5-methylpyridin-2-yl]amino}cyclohexyl)-5-fluorobenzamide hydrochloride] | < 50 | –
Cc1cc(N(C)C)cc(N[C@H]2CC[C@@H](NC(=O)c3cccc(C(F)(F)F)c3)CC2)n1 [Example 177, N-(cis-4-{[4-(dimethylamino)-6-methylpyridin-2-yl]amino}cyclohexyl)-3-(trifluoromethyl)benzamide] | – | class (percent of control at 10^−7 M or IC50) [2]: 2
Cc1cc(N(C)C)cc(N[C@H]2CC[C@@H](NC(=O)C3(c4ccc(Cl)cc4)CCCC3)CC2)n1 [Example 186, 1-(4-chlorophenyl)-N-(cis-4-{[4-(dimethylamino)-6-methylpyridin-2-yl]amino}cyclohexyl)cyclopentanecarboxamide] | < 50 | –
Cc1cc(N[C@H]2CC[C@@H](NC(=O)c3ccc(F)c(Cl)c3)CC2)nc(C)c1C [Example 50, 3-Chloro-4-fluoro-N-{cis-4-[(4,5,6-trimethylpyridin-2-yl)amino]cyclohexyl}benzamide hydrochloride] | < 50 | –
CCN(C)c1cc(N[C@H]2CC[C@@H](NC(=O)c3ccc(F)c(Cl)c3)CC2)ncc1C.Cl [Example 19, 3-Chloro-N-[cis-4-({4-[ethyl(methyl)amino]-5-methylpyridin-2-yl}amino)cyclohexyl]-4-fluorobenzamide hydrochloride] | – | class (percent of control at 10^−7 M or IC50) [2]: 2
O=C(N[C@H]1CC[C@@H](Nc2ccc3c(n2)CCCC3)CC1)c1cc(F)c(F)c(F)c1 [Example 40, 3,4,5-Trifluoro-N-[cis-4-(5,6,7,8-tetrahydroquinolin-2-ylamino)cyclohexyl]benzamide hydrochloride] | < 50 | –
Cc1cnc(N[C@H]2CC[C@@H](NC(=O)c3ccc(F)c(F)c3)CC2)cc1N(C)C [Example 8, N-(cis-4-{[4-(Dimethylamino)-5-methylpyridin-2-yl]amino}cyclohexyl)-3,4-difluorobenzamide hydrochloride] | < 50 | –
Cc1cc(N(C)C)cc(N[C@H]2CC[C@@H](NC(=O)c3cccnc3Oc3ccccc3)CC2)n1 [Example 203, N-(cis-4-{[4-(dimethylamino)-6-methylpyridin-2-yl]amino}cyclohexyl)-2-phenoxynicotinamide] | – | class (percent of control at 10^−7 M or IC50) [2]: 2
